Experimental data reported in US20120053168A1, “FUSED BENZOAZEPINES AS NEURONAL NICOTINIC ACETYLCHOLINE RECEPTOR LIGANDS” (Targacept, Inc., priority 2009, published 2012).
Like-named read-outs stand apart in the source and are kept apart here.

Experiments:
[1] = biological target: T1, Human α4β2 nAChR subtype (Homo sapiens, UniProt P17787+P43681); assay: [3H]nicotine radioligand binding, membranes from SH-EP1/human α4β2 clonal cells
T1 construct: expressed in transfected cells; host or cells: SH-EP1 clonal cells
Protocol: Preparation of membranes from SH-EP1/human α4β2 clonal cells:
Cell pellets from 40 150 mm culture dishes were pooled, and homogenized by Polytron (Kinematica GmbH, Switzerland) in 20 milliliters of ice-cold preparative buffer. The homogenate was centrifuged at 48,000 g for 20 minutes at 4° C. The resulting pellet was re-suspended in 20 mL of ice-cold preparative buffer and stored at ˜20° C.
(§1) On the day of the assay, the frozen membranes were thawed and spun at 48,000×g for 20 min. The supernatant was decanted and discarded. The pellet was resuspended in Dulbecco's phosphate buffered saline (PBS, Life Technologies) pH 7.4 and homogenized with the Polytron for 6 seconds. Protein concentrations were determined using a Pierce BCA Protein Assay Kit, with bovine serum albumin as the standard (Pierce Chemical Company, Rockford, Ill.).
(§2) Assay: Membrane preparations (approximately 50 μg for human and 200-300 μg protein for rat α4β2) were incubated in PBS (50 μL and 100 μL respectively) in the presence of competitor compound (0.01 nM to 100 μM) and 5 nM [^3H]nicotine for 2-3 hours on ice. Incubation was terminated by rapid filtration on a multi-manifold tissue harvester (Brandel, Gaithersburg, Md.) using GF/B filters presoaked in 0.33% polyethyleneimine (w/v) to reduce non-specific binding. Tissue was rinsed 3 times in PBS, pH 7.4. Scintillation fluid was added to filters containing the washed tissue and allowed to equilibrate. Filters were then counted to determine radioactivity bound to the membranes by liquid scintillation counting (2200CA Tri-Carb LSC, Packard Instruments, 50% efficiency or Wallac Trilux 1450 MicroBeta, 40% efficiency, Perkin Elmer).
(§3) Data were expressed as disintegrations per minute (DPMs). Within each assay, each point had 2-3 replicates. The replicates for each point were averaged and plotted against the log of the drug concentration. IC50, which is the concentration of the compound that produces 50% inhibition of binding, was determined by least squares non-linear regression. Ki values were calculated using the Cheng-Prussof equation (1973): […]
(§4) where N is the concentration of [^3H]nicotine and Kd is the affinity of nicotine (3 nM, determined in a separate experiment).

[2] = biological target: T2, Rat α4β2 nAChR subtype (Rattus norvegicus, UniProt P09483+P12390); assay: [3H]nicotine radioligand binding, membranes from rat cortex
T2 construct: from tissue; host or cells: rat cerebral cortex membranes (female Sprague-Dawley)
Protocol: Preparation of membranes from rat cortex: Rats (female, Sprague-Dawley), weighing 150-250 g, were maintained on a 12 h light/dark cycle and were allowed free access to water and food supplied by PMI Nutrition International, Inc. Animals were anesthetized with 70% CO2, and then decapitated. Brains were removed and placed on an ice-cold platform. The cerebral cortex was removed and placed in 20 volumes (weight:volume) of ice-cold preparative buffer (137 mM NaCl, 10.7 mM KCl, 5.8 mM KH2PO4, 8 mM Na2HPO4, 20 mM HEPES (free acid), 5 mM iodoacetamide, 1.6 mM EDTA, pH 7.4); PMSF, dissolved in methanol to a final concentration of 100 μM, was added and the suspension was homogenized by Polytron. The homogenate was centrifuged at 18,000×g for 20 min at 4° C. and the resulting pellet was re-suspended in 20 volumes of ice-cold water. After 60 min incubation on ice, a new pellet was collected by centrifugation at 18,000×g for 20 min at 4° C. The final pellet was re-suspended in 10 volumes of buffer and stored at ˜20° C.
as §1, §2, §3, §4

[3] = [3H]nicotine, "Failed HTS" = failed to bind sufficiently in high through-put screening to warrant Ki determination, read-out: Human α4β2 Ki
[4] = [3H]nicotine, "Failed HTS" = failed to bind sufficiently in high through-put screening to warrant Ki determination
[5] = [3H]nicotine, "Failed HTS" = failed to bind sufficiently in high through-put screening to warrant Ki determination, read-out: Rat α4β2 Ki

T2 sequence (P09483 31-630): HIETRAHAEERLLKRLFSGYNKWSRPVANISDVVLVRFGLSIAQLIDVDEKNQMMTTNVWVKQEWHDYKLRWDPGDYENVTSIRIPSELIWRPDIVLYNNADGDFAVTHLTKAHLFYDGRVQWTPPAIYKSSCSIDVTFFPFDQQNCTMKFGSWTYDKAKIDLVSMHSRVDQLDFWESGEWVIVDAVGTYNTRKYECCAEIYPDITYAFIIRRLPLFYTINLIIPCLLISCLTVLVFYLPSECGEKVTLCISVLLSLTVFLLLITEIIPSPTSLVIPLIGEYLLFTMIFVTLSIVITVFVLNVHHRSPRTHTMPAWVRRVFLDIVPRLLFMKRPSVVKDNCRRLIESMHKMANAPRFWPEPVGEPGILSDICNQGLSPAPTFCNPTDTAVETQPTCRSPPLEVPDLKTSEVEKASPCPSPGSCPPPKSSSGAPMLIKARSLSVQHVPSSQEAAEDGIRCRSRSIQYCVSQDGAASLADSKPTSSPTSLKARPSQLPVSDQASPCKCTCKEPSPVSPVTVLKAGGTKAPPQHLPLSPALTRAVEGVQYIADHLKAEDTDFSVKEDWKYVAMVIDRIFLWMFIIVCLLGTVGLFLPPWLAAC
T2 sequence (P12390 25-500): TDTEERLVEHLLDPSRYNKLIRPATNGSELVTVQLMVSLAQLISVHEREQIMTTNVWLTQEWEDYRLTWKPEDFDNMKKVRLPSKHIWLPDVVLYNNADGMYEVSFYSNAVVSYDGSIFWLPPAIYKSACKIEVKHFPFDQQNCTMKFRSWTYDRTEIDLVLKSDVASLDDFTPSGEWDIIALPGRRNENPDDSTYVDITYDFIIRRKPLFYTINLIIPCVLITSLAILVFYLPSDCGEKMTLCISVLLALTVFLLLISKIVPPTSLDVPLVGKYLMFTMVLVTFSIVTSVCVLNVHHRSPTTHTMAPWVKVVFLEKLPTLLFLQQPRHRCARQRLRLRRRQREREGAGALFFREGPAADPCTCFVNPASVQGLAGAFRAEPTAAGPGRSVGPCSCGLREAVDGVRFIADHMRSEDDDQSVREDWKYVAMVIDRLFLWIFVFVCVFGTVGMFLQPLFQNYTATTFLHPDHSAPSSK
T1 sequence (P43681 29-627 limits assumed): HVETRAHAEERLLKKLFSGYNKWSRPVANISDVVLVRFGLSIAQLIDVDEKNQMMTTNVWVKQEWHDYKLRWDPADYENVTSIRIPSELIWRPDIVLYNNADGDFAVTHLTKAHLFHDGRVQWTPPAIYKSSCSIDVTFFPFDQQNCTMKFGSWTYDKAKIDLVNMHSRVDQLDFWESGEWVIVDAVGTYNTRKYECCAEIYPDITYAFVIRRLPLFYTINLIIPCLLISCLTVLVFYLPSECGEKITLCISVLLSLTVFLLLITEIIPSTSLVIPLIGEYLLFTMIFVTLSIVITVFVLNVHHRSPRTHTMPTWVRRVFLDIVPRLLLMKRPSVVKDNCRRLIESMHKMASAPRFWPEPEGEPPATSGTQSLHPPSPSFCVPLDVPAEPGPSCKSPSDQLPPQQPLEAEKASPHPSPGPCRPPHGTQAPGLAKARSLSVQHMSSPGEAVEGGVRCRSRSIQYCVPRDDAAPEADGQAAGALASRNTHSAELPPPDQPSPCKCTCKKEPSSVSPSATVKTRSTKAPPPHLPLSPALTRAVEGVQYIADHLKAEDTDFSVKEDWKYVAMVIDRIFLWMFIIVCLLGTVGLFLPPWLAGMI
T1 sequence (P17787 26-502): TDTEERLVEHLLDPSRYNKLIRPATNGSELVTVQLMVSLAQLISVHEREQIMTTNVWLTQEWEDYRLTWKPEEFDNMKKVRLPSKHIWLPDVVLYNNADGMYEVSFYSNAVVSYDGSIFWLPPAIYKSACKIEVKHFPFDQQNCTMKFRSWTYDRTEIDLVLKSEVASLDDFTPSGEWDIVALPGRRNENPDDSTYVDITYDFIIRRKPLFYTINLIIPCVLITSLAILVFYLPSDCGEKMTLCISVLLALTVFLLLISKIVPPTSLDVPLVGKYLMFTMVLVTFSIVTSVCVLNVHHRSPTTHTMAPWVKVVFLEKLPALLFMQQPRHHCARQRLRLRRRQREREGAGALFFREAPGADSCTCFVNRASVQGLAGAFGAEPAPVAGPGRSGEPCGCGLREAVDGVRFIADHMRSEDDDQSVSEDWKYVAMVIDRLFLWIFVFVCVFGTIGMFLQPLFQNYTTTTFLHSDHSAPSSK

Compound	Ki [1, 3]	Rat α4β2 Ki (nM) [2, 4]	further results
c1ccc(CNc2cnc3cc4c(cc3n2)CCNCC4)cc1 [M]	530 nM	Failed HTS	
c1cncc(-c2cnc3cc4c(cc3n2)CCNCC4)c1 [I]		Failed HTS	Ki [1]: 7400 nM
COc1ccc2cc3c(cc2n1)CCNCC3 [P]	1200 nM	Failed HTS	
CNc1cnc2cc3c(cc2n1)CCNCC3 [K]		Failed HTS	Human α4β2 Ki (nM) [1, 4]: Failed HTS
Cc1cnc2cc3c(cc2n1)CCNCC3 [E]	37 nM		Ki [2, 5]: 63 nM
CN1CCc2cc3nccnc3cc2CC1 [R]		Failed HTS	Ki [1]: 210 nM
Cc1ccc2cc3c(cc2n1)CCNCC3 [Q]	11 nM		Ki [2, 5]: 45 nM
Clc1cnc2cc3c(cc2n1)CCNCC3 [J]			Ki [1]: 45 nM; Ki [2]: 12 nM
c1cnc2cc3c(cc2c1)CCNCC3 [F]	0.93 nM		Ki [2, 5]: 3 nM
O=c1ccc2cc3c(cc2[nH]1)CCNCC3 [N]		Failed HTS	Human α4β2 Ki (nM) [1, 4]: Failed HTS
CN(C)c1cnc2cc3c(cc2n1)CCNCC3 [L]	740 nM	Failed HTS	
Clc1ccc2cc3c(cc2n1)CCNCC3 [O]			Ki [1]: 0.48 nM; Ki [2]: 3.1 nM
O=c1cnc2cc3c(cc2[nH]1)CCNCC3 [G]	63 nM		Ki [2, 5]: 120 nM
CCc1nc2cc3c(cc2nc1CC)CCNCC3 [D]	460 nM	Failed HTS	
COc1cnc2cc3c(cc2n1)CCNCC3 [H]	25 nM		Ki [2, 5]: 77 nM
Cc1nc2cc3c(cc2nc1C)CCNCC3 [B]			Ki [1]: 98 nM; Ki [2]: 590 nM
CCc1nc2cc3c(cc2nc1C)CCNCC3 [C]	310 nM	Failed HTS	
